Results: patent US4479951A, “1.4;3.6-Dianhydrohexitol nitrates substituted by purine bases, processes for their preparation and pharmaceutical compositions” (Dr. Willmar Schwabe GmbH & Co., priority 1980, dated 1984)
pIC50: −log10 of the molar value.

Assays:
[1] = system: isolated rat aorta preparations; assay: spasmolytic effectiveness, potassium chloride-induced contractions; details: read-out: ED50 potassium chloride spasm
mouse = assay: acute toxicity, p.o. and i.p. (footnote of Table VII); format: in vivo; details: p.o.
[2] = as above; format: in vivo; details: mouse, in vivo, ip
[3] = acute toxicity, intravenous; format: in vivo; details: mouse, in vivo, iv; read-out: Evaluated LD50-range
female NMRI-albino mice = assay: acute toxicity, intravenous; format: in vivo; details: mouse, in vivo
mongrel cats = assay: heart-circulation effectiveness on narcotised mongrel cats, intraduodenal administration; details: 5 mg/kg intraduodenal
Description: The animals were narcotised with a mixture of chloralose-urethane (1.2 g./kg. urethane+40 mg./kg. chloralose administered i.p.). They breathed spontaneously through a tracheal canula. The A. carotis sinistra was used in order to place a catheter tip monometer in the left chamber of the heart. The V. jugularis served for injection purposes. Via the A. femoralis dextra, a catheter was inserted up into the Aorta descendans and connected to a pressure recorder (Statham P 23Db). The heart frequency was recorded with a pulse frequency measurer (Firm Hugo Sachs Elektronik) from the left ventricular pressure signal. A duodenal loop was exposed by laparotomy. The substances to be tested were injected directly into the lumen.

[4] = system: isolated rat aorta preparations; assay: spasmolytic effectiveness, noradrenaline-induced contractions; details: read-out: ED50 noradrenaline spasm
guinea pigs = assay: blood pressure-lowering effectiveness on narcotised guinea pigs, intravenous; format: in vivo, guinea pig; details: for blood pressure previously: before administration
[5] = printed on the 0 min line (= change 0 to 10 min)
[6] = printed on the 10 min line (= change 0 to 30 min)
[7] = printed on the 30 min line (= change 0 to 60 min)
[8] = printed on the 60 min line (= change 0 to 120 min)

Nc1ncnc2c1ncn2[C@H]1CO[C@H]2[C@@H]1OC[C@@H]2O[N+](=O)[O-] [1c/2c, 5-(9-Adenyl)-5-desoxy-1.4;3.6-dianhydro-L-iditol 2-nitrate]
pIC50 [1]: 5.55
LD70 p.o. mouse (mouse): 1600 mg/kg
LD50 [2]: 540 mg/kg
LD50 at 24 h [3]: > 200 mg/kg
Frequency of death (female NMRI-albino mice): 0/6
blood pressure (mongrel cats; 0 min): 124.2 ± 8.3 mm. Hg
dp/dt (mongrel cats; 0 min): 7220 ± 611 mm sec
heart frequency (mongrel cats; 0 min): 171.6 ± 6.2 min⁻¹
blood pressure (mongrel cats; 10 min): 108.6 ± 8.5 mm. Hg
dp/dt (mongrel cats; 10 min): 7500 ± 522 mm sec
heart frequency (mongrel cats; 10 min): 180.4 ± 4.3 min⁻¹
blood pressure (mongrel cats; 30 min): 107.8 ± 8.4 mm. Hg
dp/dt (mongrel cats; 30 min): 6960 ± 564 mm sec
heart frequency (mongrel cats; 30 min): 177.2 ± 5.4 min⁻¹
blood pressure (mongrel cats; 60 min): 106.6 ± 7.8 mm. Hg
dp/dt (mongrel cats; 60 min): 7100 ± 721 mm sec
heart frequency (mongrel cats; 60 min): 177.6 ± 5.1 min⁻¹
blood pressure (mongrel cats; 120 min): 106.2 ± 5.6 mm. Hg
dp/dt (mongrel cats; 120 min): 7000 ± 1026 mm sec
heart frequency (mongrel cats; 120 min): 178.8 ± 4.4 min⁻¹
blood pressure Δ (mongrel cats; [5]): -15.6 mm. Hg
dp/dt Δ (mongrel cats; [5]): +280 mm sec
blood pressure Δ (mongrel cats; [6]): -16.4 mm. Hg
dp/dt Δ (mongrel cats; [6]): -260 mm sec
blood pressure Δ (mongrel cats; [7]): -17.6 mm. Hg
dp/dt Δ (mongrel cats; [7]): -120 mm sec
blood pressure Δ (mongrel cats; [8]): -18.0 mm. Hg
dp/dt Δ (mongrel cats; [8]): -220 mm sec
pIC50 [4]: 6.87
blood pressure afterwards (guinea pigs; 0.25 mg/kg i.v.): 50.50 ± 2.33 mm. Hg
blood pressure Δ (guinea pigs; 0.25 mg/kg i.v.): -17.75 mm. Hg
blood pressure previously (guinea pigs; 0.25 mg/kg i.v.): 68.25 ± 2.50 mm. Hg
blood pressure afterwards (guinea pigs; 1.00 mg/kg i.v.): 41.50 ± 3.97 mm. Hg
blood pressure Δ (guinea pigs; 1.00 mg/kg i.v.): -28.00 mm. Hg
blood pressure previously (guinea pigs; 1.00 mg/kg i.v.): 69.50 ± 2.90 mm. Hg
blood pressure afterwards (guinea pigs; 2.50 mg/kg i.v.): 38.75 ± 2.66 mm. Hg
blood pressure Δ (guinea pigs; 2.50 mg/kg i.v.): -31.25 mm. Hg
blood pressure previously (guinea pigs; 2.50 mg/kg i.v.): 70.00 ± 2.27 mm. Hg
blood pressure-lowering effectiveness, comparison (guinea pigs; i.v.): even more effective than ISDN
